Source: US7022736B2, “Enzyme inhibitors” (Istituto Di Ricerche Di Biologia Molecolare P Angeletti SpA, priority 1998, dated 2006)

Each molecule was assayed against T1, HCV RdRp (NS5B RNA-dependent RNA polymerase) (Hepatitis C virus genotype 1b, UniProt P26663) (assay: Inhibition of hepatitis C virus RdRp (poly(A)/oligo(U), [3H]UTP incorporation)). Details: Tables I-VIII; 20 nM NS5B, 1 hour at 22° C.; read-out: IC 50 (μM), HCV-polymerase.
T1 construct: The HCV NS5B protein is the viral RdRp; made in house; host or cells: insect cells infected with recombinant baculovirus
T1 sequence (P26663 2420-3010): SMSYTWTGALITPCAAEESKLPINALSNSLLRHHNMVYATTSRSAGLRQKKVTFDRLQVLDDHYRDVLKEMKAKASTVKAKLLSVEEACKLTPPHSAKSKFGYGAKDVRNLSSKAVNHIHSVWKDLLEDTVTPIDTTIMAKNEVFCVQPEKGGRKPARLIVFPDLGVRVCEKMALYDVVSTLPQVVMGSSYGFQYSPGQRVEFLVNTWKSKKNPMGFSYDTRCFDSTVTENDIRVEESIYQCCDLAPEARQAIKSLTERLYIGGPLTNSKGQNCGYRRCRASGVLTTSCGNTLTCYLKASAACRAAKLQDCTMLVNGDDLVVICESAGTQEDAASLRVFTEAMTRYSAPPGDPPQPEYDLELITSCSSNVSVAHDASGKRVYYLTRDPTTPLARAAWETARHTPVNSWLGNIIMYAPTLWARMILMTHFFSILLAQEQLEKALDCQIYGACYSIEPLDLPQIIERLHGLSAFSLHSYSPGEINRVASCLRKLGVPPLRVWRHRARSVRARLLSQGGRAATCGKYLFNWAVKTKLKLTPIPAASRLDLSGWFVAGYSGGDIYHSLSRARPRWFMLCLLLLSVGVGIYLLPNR
Type: biochemical
Experimental: In initial tests, the compounds were tested to see if they were effective as inhibitors of the RNA-dependent RNA polymerase (RdRp) of hepatitis C virus (HCV). The HCV NS5B protein is the viral RdRp; compounds capable of interfering with the activity of this enzyme are thus expected to block viral replication.
Test for Inhibition of Hepatatis C Virus RdRp
WO96/37619 describes the production of recombinant HCV RdRp from insect cells infected with recombinant baculovirus encoding the enzyme. […] The reference describes a polymerisation assay using poly (A) as a template and oligo (U) as a primer. Incorporation of tritiated UTP is quantified by measuring acid-insoluble radioactivity. The present inventors have employed this assay to screen the various compounds described above as inhibitors of HCV RdRp and other virally encoded polymerases.
Incorporation of radioactive UMP was measured as follows. The standard reaction (100 μl) was carried out in a buffer containing 20 mM tris/HCl pH 7.5, 5 mM MgCl2, 1 mM DTT, 50 mM NaCl, 1 mM EDTA, 2 OU Rnasin (Promega), 0.05% Triton X-100, 1 μCi[^3H] UTP (40 Ci/mmol,NEN), 10 μM UTP and 10 μg/ml poly (A). Oligo (U)12 (1 μg/ml, Genset) was added as a primer. The final NSSB enzyme concentration was 20 nM. After 1 hour incubation at 22° C. the reaction was stopped by adding 100 μl of 20% TCA and applying samples to DE81 filters. The filters were washed thoroughly with 5% TCA containing 1M Na2HPO4/NaH2PO4, pH 7.0, rinsed with water and then ethanol, air dried, and the filter-bound radioactivity was measured in the scintillation counter. By carrying out the reaction in the presence of various concentrations of each of the compounds set out above it was possible to determine IC50 values for each compound with the formula: % residual activity=100/(1+[I]/IC50)^s where [I] is the inhibitor concentration and “s” is the slope of the inhibition curve. Test for Inhibition of Hepatitis B Virus Polymerase

IC50 [µM] | Structure (SMILES)
3 | Cc1ccccc1C(=O)C=C(O)C(=O)O [Example 2]
27.9 | O=C(O)C(O)=CC(=O)c1cccc(-c2ccccc2)c1 [Example 3]
17 | C=CCOc1cccc(C(=O)C=C(O)C(=O)O)c1 [Example 5]
18 | O=C(O)C(O)=CC(=O)c1ccccc1C(F)(F)F [Example 6]
51 | O=C(O)C(O)=CC(=O)c1ccccc1OCC1CCCCC1 [Example 9]
20 | O=C(O)C(O)=CC(=O)c1cccc(OCC2CCCCC2)c1 [Example 10]
7.08 | O=C(O)C(O)=CC(=O)c1cccc(OC2CCCCC2)c1 [Example 11]
16.7 | O=C(O)C(O)=CC(=O)c1cccc(NCc2ccccc2)c1 [Example 12]
2.6 | N#CCCCOc1cccc(C(=O)C=C(O)C(=O)O)c1 [Example 13]
26 | O=C(O)COc1cccc(C(=O)C=C(O)C(=O)O)c1 [Example 14]
83.5 | O=C(O)C(O)=CC(=O)c1cccc(N2CCCC2)c1 [Example 15]
11.6 | COc1ccccc1C(=O)C=C(O)C(=O)O [Example 17]
19 | O=C(O)C(O)=CC(=O)c1cccc(OCCCCn2c(C(F)(F)F)nc3ccccc32)c1 [Example 22]
28 | N#Cc1ccc(COc2ccccc2C(=O)C=C(O)C(=O)O)cc1 [Example 25]
26 | N#Cc1cccc(COc2ccccc2C(=O)C=C(O)C(=O)O)c1 [Example 26]
6.2 | N#Cc1cccc(COc2cccc(C(=O)C=C(O)C(=O)O)c2)c1 [Example 28]
3.9 | CCCOc1ccccc1C(=O)C=C(O)C(=O)O [Example 29]
15 | CCCCCCOc1cccc(C(=O)C=C(O)C(=O)O)c1 [Example 30]
18 | CCCCCCCOc1ccccc1C(=O)C=C(O)C(=O)O [Example 31]
6.1 | CC(C)COc1ccccc1C(=O)C=C(O)C(=O)O [Example 32]
18.2 | O=C(O)C(O)=CC(=O)c1ccccc1SC1CCCCC1 [Example 33]

IC50 [µM] | Structure (SMILES)
9.6 | CCCSc1ccccc1C(=O)C=C(O)C(=O)O [Example 34]
6.1 | N#CCCCOc1ccc(OCCCC#N)c(C(=O)C=C(O)C(=O)O)c1 [Example 35]
18 | O=C(O)C(O)=CC(=O)c1ccccc1Oc1ccc(F)cc1 [Example 37]
16 | O=C(O)C(O)=CC(=O)c1ccccc1Oc1ccc(Cl)cc1 [Example 38]
22 | Cc1ccc(Oc2ccccc2C(=O)C=C(O)C(=O)O)cc1 [Example 39]
28.9 | O=C(O)C(O)=CC(=O)c1cccc(N(Cc2ccccc2)Cc2ccccc2)c1 [Example 41]
16.6 | O=C(O)C(O)=CC(=O)c1ccccc1N(Cc1ccccc1)Cc1ccccc1 [Example 42]
20 | O=C(O)C(O)=CC(=O)c1cccc(Cc2cccc(Cl)c2)c1 [Example 43]
18.5 | O=C(O)C(O)=CC(=O)c1cccc(Oc2ccccc2)c1 [Example 44]
12.9 | O=C(O)C(O)=CC(=O)c1cccc(Cc2ccc(Cl)cc2)c1 [Example 45]
30.1 | O=C(O)C(O)=CC(=O)c1cccc(Cc2ccc(F)cc2)c1 [Example 46]
20.7 | O=C(O)C(O)=CC(=O)c1cccc(C2=CCCc3ccccc32)c1 [Example 47]
22 | O=C(O)C(O)=CC(=O)c1cccc(Cc2cccc(Br)c2)c1 [Example 48]
32 | O=C(O)C(O)=CC(=O)c1cccc(Cc2cc(Br)cc(Br)c2)c1 [Example 49]
1.9 | C#CCCCOc1ccccc1C(=O)C=C(O)C(=O)O [Example 51]
10 | CCCCOc1ccccc1C(=O)C=C(O)C(=O)O [Example 52]
2.3 | N#CCCCOc1ccc(Br)cc1C(=O)C=C(O)C(=O)O [Example 54]
10.8 | O=C(O)C(O)=CC(=O)c1ccccc1/C=C/c1ccccc1 [Example 55]
23.6 | N#CCCCOc1ccc(C#CCCCCl)cc1C(=O)C=C(O)C(=O)O [Example 56]
2.1 | N#CCCCOc1ccc(/C=C/c2ccccc2)cc1C(=O)C=C(O)C(=O)O [Example 57]
13.6 | N#CCCCOc1ccc(-c2ccccc2)cc1C(=O)C=C(O)C(=O)O [Example 58]

IC50 [µM] | Structure (SMILES)
25.3 | CCCCCOc1ccccc1C(=O)C=C(O)C(=O)O [Example 59]
40 | COc1cccc(C(=O)C=C(O)C(=O)O)c1 [Example 60]
31 | CC(C)(C)OC(=O)Nc1cccc(C(=O)C=C(O)C(=O)O)c1 [Example 61]
10 | Nc1cccc(C(=O)C=C(O)C(=O)O)c1 [Example 62]
1.7 | N#CCCCOc1ccc(N)cc1C(=O)C=C(O)C(=O)O [Example 63]
0.23 | N#Cc1ccccc1COc1cccc(C(=O)C=C(O)C(=O)O)c1 [Example 64]
45 | N#Cc1ccccc1COc1ccccc1C(=O)C=C(O)C(=O)O [Example 65]
11 | O=C(O)C(O)=CC(=O)c1cccc(NC(=O)c2ccccc2)c1 [Example 66]
16 | O=C(O)C(O)=CC(=O)c1cccc(NS(=O)(=O)c2ccccc2)c1 [Example 67]
30 | N#Cc1ccc(C(=O)Nc2cccc(C(=O)C=C(O)C(=O)O)c2)cc1 [Example 68]
14 | N#CC(CCOc1ccccc1C(=O)C=C(O)C(=O)O)(c1ccccc1)c1ccccc1 [Example 69]
9.2 | N#Cc1cccc(C(=O)Nc2cccc(C(=O)C=C(O)C(=O)O)c2)c1 [Example 70]
10.6 | O=C(O)C(O)=CC(=O)c1cccc(OCc2cccnc2)c1 [Example 71]
0.48 | N#Cc1ccccc1S(=O)(=O)Nc1cccc(C(=O)C=C(O)C(=O)O)c1 [Example 72]
5.6 | O=C(O)C(O)=CC(=O)c1cccc(OCc2ccccn2)c1 [Example 73]
3.6 | N#Cc1ccc(S(=O)(=O)Nc2cccc(C(=O)C=C(O)C(=O)O)c2)cc1 [Example 74]
19.2 | CS(=O)(=O)Nc1cccc(C(=O)C=C(O)C(=O)O)c1 [Example 75]
4.8 | O=C(O)C(O)=CC(=O)c1cccc(NS(=O)(=O)c2ccccc2Br)c1 [Example 77]
6 | O=C(O)C(O)=CC(=O)c1cccc(NCc2cccc(C(=O)O)c2)c1 [Example 79]
3 | O=C(Nc1ccccc1)Nc1cccc(C(=O)C=C(O)C(=O)O)c1 [Example 80]
1.4 | O=C(Nc1cccc(C(=O)C=C(O)C(=O)O)c1)OCc1ccccc1 [Example 81]

IC50 [µM] | Structure (SMILES)
19 | CC(C)(C)OC(=O)c1sccc1COc1cccc(C(=O)C=C(O)C(=O)O)c1 [Example 82]
9.4 | O=C(O)C(O)=CC(=O)c1cccc(OC/C=C/c2ccccc2)c1 [Example 83]
0.95 | O=C(O)C(O)=CC(=O)c1cccc(OCc2ccsc2C(=O)O)c1 [Example 84]
13 | O=C(O)C(O)=CC(=O)c1cccc(NC(=O)c2ccccc2Cl)c1 [Example 85]
2.05 | Cc1cccc(COc2cccc(C(=O)C=C(O)C(=O)O)c2)c1F [Example 86]
2.3 | O=C(O)C(O)=CC(=O)c1cccc(OCc2ccc(F)cc2Cl)c1 [Example 87]
0.7 | O=C(O)C(O)=CC(=O)c1cccc(NS(=O)(=O)c2cc(Cl)ccc2Cl)c1 [Example 88]
3.3 | O=C(O)C(O)=CC(=O)c1cccc(OCc2ccccc2Br)c1 [Example 89]
1.8 | O=C(O)C(O)=CC(=O)c1cccc(OCc2ccccc2C(=O)O)c1 [Example 90]
6.2 | Cc1ccccc1COc1cccc(C(=O)C=C(O)C(=O)O)c1 [Example 91]
1 | COc1cccc(COc2cccc(C(=O)C=C(O)C(=O)O)c2)c1 [Example 92]
1.9 | O=C(O)C(O)=CC(=O)c1cccc(OCc2cccc(C(F)(F)F)c2)c1 [Example 93]
5.8 | O=C(O)C(O)=CC(=O)c1cccc(OCc2cccc(F)c2)c1 [Example 94]
0.48 | O=C(O)C(O)=CC(=O)c1cccc(NS(=O)(=O)c2cc(Cl)sc2Cl)c1 [Example 95]
50 | O=C(O)C(O)=CC(=O)c1cccc(OCc2ccc(-c3ccccc3)cc2)c1 [Example 96]
2.8 | O=C(O)C(O)=CC(=O)c1cccc(OCc2ccccc2-c2ccccc2)c1 [Example 97]
1 | O=C(O)C(O)=CC(=O)c1cccc(OCc2cc(C(=O)O)ccc2Cl)c1 [Example 98]
7.8 | O=C(O)C(O)=CC(=O)c1cccc(OCc2ccc(C(=O)O)cc2Cl)c1 [Example 100]

Same assay, conditions: Tables IXa-IXc; unit inferred; read-out: HCV (IC50)

IC50 [µM] | Structure (SMILES)
32 | O=C(O)C(O)=CC(=O)c1cccc(Cc2cc(Br)cc(Br)c2)c1 [Example 49]
0.23 | N#Cc1ccccc1COc1cccc(C(=O)C=C(O)C(=O)O)c1 [Example 64]
11 | O=C(O)C(O)=CC(=O)c1cccc(NC(=O)c2ccccc2)c1 [Example 66]
0.48 | N#Cc1ccccc1S(=O)(=O)Nc1cccc(C(=O)C=C(O)C(=O)O)c1 [Example 72]
3 | O=C(Nc1ccccc1)Nc1cccc(C(=O)C=C(O)C(=O)O)c1 [Example 80]
0.95 | O=C(O)C(O)=CC(=O)c1cccc(OCc2ccsc2C(=O)O)c1 [Example 84]
0.7 | O=C(O)C(O)=CC(=O)c1cccc(NS(=O)(=O)c2cc(Cl)ccc2Cl)c1 [Example 88]
1.8 | O=C(O)C(O)=CC(=O)c1cccc(OCc2ccccc2C(=O)O)c1 [Example 90]
